In patent US20040014634A1, “Thieno[2,3-d]pyrimidinediones and their use as pharmaceuticals” (priority 2000, published 2004) one finds melting point data, which are given here for 17 compounds.

Where a name gives a salt, the structure may show the parent alone.

For `CC(C)Cn1c(=O)n(C)c(=O)c2c(S(=O)(=O)c3nncs3)c(Cc3ccccc3C(F)(F)F)sc21` [Example 39, 3-Methyl-1-(2-methylpropl)-5-(1,3,4-thiadiazol-2-ylsulfonyl)-6-[2-(trifluoromethyl)benzyl]-thieno[2,3-d]pyrimidine-2,4(1H,3H)-dione], the melting point is 148 to 149 °C.

`CC(C)Cn1c(=O)n(C)c(=O)c2c(Sc3n[nH]c(=O)[nH]3)c(Cc3ccccc3C(F)(F)F)sc21` [Example 41, 3-Methyl-1-(2-methylpropyl)-5-[(5-oxo-4,5-dilydro-1H-1,2,4-triazol-3-yl)thio]-6-[2-(trifluoromethyl)phenylmethyl]-thieno[2,3-d]pyrimidine-2,4(1H,3H)-dione] showed a melting point of 205 to 211 °C.

Compound `CC(C)Cn1c(=O)n(C)c(=O)c2c(Sc3nnc[nH]3)c(Cc3csc4ccccc34)sc21` [Example 50, 6-(1-Benzothien3-ylmethyl)-3-methyl-1-(2-methylpropyl)-5-(4H-1,2,4-triazol-3-ylthio)-thieno[2,3-d]pyrimidine-2,4(1H,3H)-dione] registered a melting point of 237 to 238.2 °C.

`CC(C)Cn1c(=O)n(C)c(=O)c2c(Sc3nccs3)c(Cc3ccccc3C(F)(F)F)sc21` [Example 29, 3-Methyl-1-(2-methylpropyl)-5-(2-thiazolylthio)-6-[[2-(trifluoromethyl)-phenyl]methyl]-thieno[2,3-d]pyrimidine-2,4(1H,3H)-dione] came in with a melting point of 141 to 144 °C.

In the case of `Cc1n[nH]c(Sc2c(Cc3ccccc3C(F)(F)F)sc3c2c(=O)n(C)c(=O)n3CC(C)C)n1` (as salt: hydrochloride) [Example 30, 3-Methyl-1-(2-methylpropyl)-5-[(5-methyl-1H-1,2,4-triazol-3yl)thiol-6-[[2-(trifluoromethyl)phenyl]methyl]-thieno[2,3-d]pyrimidine-2,4(1H,3H)-dione dihydrochloride], the melting point was 154 °C.

Take `CC(C)Cn1c(=O)n(C)c(=O)c2c(Sc3ncc[nH]3)c(Cc3ccccc3C(F)(F)F)sc21` [Example 31, 5-(1H-Imidazol-2-ylthio)-3-methyl-1-(2-methylpropyl)-6-[[2-(trifluoromethyl)phenyl]methyl]-thieno[2,3-d]pyrimidine-2,4(1H,3H)-dione]: the melting point is 221 to 225 °C.

The compound `CC(C)Cn1c(=O)n(C)c(=O)c2c(Sc3nccs3)c(C(O)c3ccnc4ccccc34)sc21` (centres unmarked) [Example 49, 6-[Hydroxy-(4-quinolinyl)-methyl]-3-methyl-1-(2-methylpropyl)-5-(1,3-thiazol-2-ylthio)-thieno[2,3-d]pyrimidine-2,4(1H,3H)-dione] returned a melting point of 182.8 to 184 °C.

As to `CC(C)Cn1c(=O)n(C)c(=O)c2c(Sc3nccs3)c(C(=O)c3ccnc4ccccc34)sc21` [Example 48, 3-Methyl-1-(2-methylpropyl)-6-(4-quinolinylcarbonyl)-5-(1,3-thiazol-2-ylthio)-thieno[2,3-d]pyrimidine-2,4(1H,3H)-dione], the melting point lay in the range of 166.8 to 167.6 °C.

`Cc1nc(Sc2c(C(=O)c3ccccc3C(F)(F)F)sc3c2c(=O)n(C)c(=O)n3CC(C)C)n[nH]1` [Example 18] registered a melting point of 220 to 222 °C.

The compound `CC(C)Cn1c(=O)n(C)c(=O)c2c(Sc3nncs3)c(Cc3ccccc3C(F)(F)F)sc21` [Example 32, 3-Methyl-1-(2-methylpropyl)-5-(1,3,4-thiadiazol-2-ylthio)-6-[2-(trifluoromethyl)benzyl]-thieno[2,3-d]pyrimidine-2,4(1H,3H)dione] came in with a melting point of 169 to 170 °C.

`CC(C)Cn1c(=O)n(C)c(=O)c2c(Sc3nc(Br)n[nH]3)c(Cc3ccccc3C(F)(F)F)sc21` [Example 40] gave a melting point of 174 to 175 °C.

`CC(C)Cn1c(=O)n(C)c(=O)c2c(Sc3ncc[nH]3)c(C(=O)c3ccccc3C(F)(F)F)sc21` [Example 22, 5-(1H-Imidazol-2-ylthio)-3-methyl-1-(2-methylpropyl)-6-[2-(trifluoromethyl)bezoyl]-thieno[2,3-d]pyrimidine-2,4(1H,3H)-dione] displayed a melting point of 123 to 127 °C.

The compound `CC(C)Cn1c(=O)n(C)c(=O)c2c(Sc3cccs3)c(Cn3cnc4ccccc43)sc21` [Example 51] gave a melting point of 198 °C.

Turning to `CC(C)Cn1c(=O)n(C)c(=O)c2c(Sc3nnc(N)s3)c(Cc3ccccc3C(F)(F)F)sc21` [Example 33, 5-[(5-Amino-1,3,4-thiadiazol-2-yl)thio]-3-methyl-1-(2-methylpropyl)-6-[2-(trifluoromethyl)benzyl]-thieno[2,3-d]pyrimidine-2,4(1H,3H)-dione], the melting point fell in the range of 236 to 237 °C.

Turning to `CC(C)Cn1c(=O)n(C)c(=O)c2c(Sc3cccs3)c(CN3C(=O)c4ccccc4C3=O)sc21` [Example 54, 6-[(1,3-Dihydro-1,3-dioxo-2H-isoindol-2-yl)methyl]-3-methyl-1-(2-methylpropyl)-5-(2-thienylthio)-thieno[2,3-d]pyrimidine-2,4(1H,3H)-dione], the melting point was 163 °C.

Regarding `CC(C)Cn1c(=O)n(C)c(=O)c2c(Sc3nc[nH]n3)c(Cc3ccccc3C(F)(F)F)sc21` [Example 13, 3-Methyl-1-(2-methylpropyl)-5-(1H-1,2,4-triazol-3-ylthio)-6-[[2-(trifluoromethyl)phenyl]methyl]-thieno[2,3-d]pyrimidine-2,4(1H,3H)-dione], the melting point was 186 to 187 °C.

In turn, `CC(C)Cn1c(=O)n(C)c(=O)c2c(S(=O)(=O)c3nc[nH]n3)c(C(O)c3ccccc3C(F)(F)F)sc21` (centres unmarked) [Example 37, 6-[Hydroxy[2-(trifluoromethyl)phenyl]methyl]-3-methyl-1-(2-methylpropyl)-5-(1H-1,2,4-triazol-3-ylsulfonyl)-thieno[2,3-d]pyrimidine-2,4(1H,3H)-dione] registered a melting point of 198 to 202 °C.
